This is an account of results in patent US12522590B2, “Brefeldin a derivatives, preparation method and use thereof” (OCEAN UNIVERSITY OF CHINA, priority 2019, dated 2026).

The structures appear in SMILES notation. Converted amounts (≈) assume the structure as drawn. Where two headings read alike, the source gives them in different places.

Data set [1] has as its system human liver cancer cells HepG2. In words: Cell proliferation assay (CCK-8). The settings on record: Homo sapiens, HepG2, 72 h. The data set is classed as cell-based. From the text: (§1) CCK-8 method: The CCK-8 method is a highly sensitive, non-radioactive colorimetric assay for the determination of the number of viable cells in cell proliferation or cytotoxicity assays. The orange formazan dye produced by the bioreduction of CCK-8 by intracellular dehydrogenase is soluble in the cell culture medium, and the amount of formazan dye produced is proportional to the number of living cells. The kit used in this method is the tetrazolium salt-WST-8 (2-(2-methoxy-4-nitrophenyl)-3-(4-nitrophenyl)-5-(2,4-disulfophenyl)-2H-tetrazolium monosodium salt) developed by Dojindo Chemical Research Institute (Dojindo), which is capable of being reduced to a water-soluble formazan dye in the presence of the electronic carrier 1-Methoxy PMS.
(§2) Human cervical cancer cells Hela, pancreatic cancer cells PANC-1, esophageal cancer cells Eca-109, human leukemia cells K562, human lung cancer cells A549, human liver cancer cells HepG2, human gastric cancer cells MKN-45, human breast cancer cells MCF7 were cultured in DMEM medium containing 10% FBS (fetal bovine serum), 100 U/mL penicillin and 100 μg/ml streptomycin. Hepatocellular carcinoma cells Bel-7402 were cultured in RPMI-1640 medium containing 10% FBS (fetal bovine serum), 100 U/ml penicillin and 100 μg/ml streptomycin. All cells were placed in a cell culture incubator at 37° C. with 5% CO2. Cells fluid was changed every 3-5 days, and after 80% cell fusion, trypsin digestion and passaging were performed to keep the cells in good logarithmic growth phase.
(§3) All the samples to be tested were dissolved in DMSO.
(§4) Cells in logarithmic growth phase were inoculated in 96-well plates with 5000 cells/well respectively, and after 24 h of incubation, samples were added (final concentrations as shown in the table), and biplicate wells were set up for each sample. The amount of solvent of DMSO was not higher than 2‰. After 72 h, 10 μL of CCK-8 solution was added to each well and incubated for 1.5˜3 h at 37° C. The OD value at 450 nm was measured on an plate reader. Inhibition rate (%)=(1−[(OD450 dosed well−OD450 blank well)/(OD450 control well−OD450 blank well)])×100%
(§5) The fitted IC50 values were calculated using the log (inhibitor) vs. response—Variable slop analysis method in GraphPad Prism software.

Data set [2] deals with human leukemia cells K562. In words: Cell proliferation assay (CCK-8). The settings on record: Homo sapiens, K562, 72 h. The data set is classed as cell-based.
From the text: as §1, §2, §3, §4, §5

The test system of data set [3] is Human cervical cancer cells Hela. Description: Cell proliferation assay (CCK-8). Format: cell-based. The note with it: Homo sapiens, 72 h.
From the text: as §1, §2, §3, §4, §5

Data set [4] deals with human breast cancer cells MCF7. In words: Cell proliferation assay (CCK-8). The data set is classed as cell-based. The settings on record: Homo sapiens, MCF7, 72 h.
From the text: as §1, §2, §3, §4, §5

Data set [5] deals with human lung cancer cells A549. Description: Cell proliferation assay (CCK-8). Format: cell-based. The settings on record: Homo sapiens, A549, 72 h.
From the text: as §1, §2, §3, §4, §5

The test system of data set [6] is human gastric cancer cells MKN-45. Description: Cell proliferation assay (CCK-8). Format: cell-based. The settings on record: Homo sapiens, MKN-45, 72 h.
From the text: as §1, §2, §3, §4, §5

Data set [7] deals with pancreatic cancer cells PANC-1. In words: Cell proliferation assay (CCK-8). The data set is classed as cell-based, human. The note with it: Homo sapiens, PANC-1, 72 h.
From the text: as §1, §2, §3, §4, §5

The subject of data set [8] is esophageal cancer cells Eca-109. Description: Cell proliferation assay (CCK-8). Format: cell-based, human. The note with it: Homo sapiens, Eca-109, 72 h.
From the text: as §1, §2, §3, §4, §5

Data set [9] can be described thus: Solubility test (shake 37° C., 24 h, HPLC). The note with it: thermodynamic from solid, x ± s. The data set is classed as physicochemical. Here is the method:
The term “solubility” refers to the mass of solute dissolved when a solid substance reaches saturation state in 100 g solvent at a certain temperature. Solubility test refer to the following references: ZHU Shang-bin, et al. Preparation, characterization, and physicochemical properties of arbutin phospholipid complex[J]. Chinese Traditional and Herbal Drugs. 2020, 1-10.
Methods: Excess BFA and the compounds disclosed herein were added to 10 mL of three solvents, methanol, acetone and 5% DMSO+95% H2O, respectively, and shaken on a shaker at 37° C. at 100 r/min for 24 h. After 24 h, the samples were centrifuged at 15 000 r/min for 15 min to remove the undissolved compounds. The supernatant was filtered using a 0.45 μm membrane filter. The supernatant was appropriately diluted with methanol and contents of the compounds were determined by HPLC method to calculate the solubility.

Setting [10] is: aqueous with cosolvent or surfactant or cyclodextrin, 5% DMSO + 95% H2O, n = 3, read-out: Solubility, 5% DMSO + 95% H2O.
[11] abbreviates: organic solvent or mixture, acetone, n = 3, read-out: Solubility, Acetone.
The mark [12] stands for this setting: organic solvent or mixture, methanol, n = 3, read-out: Solubility, Methanol.

The term IC50 denotes the midpoint of a concentration-inhibition curve. Low values mean higher potency, high ones lower potency. Regarding `C[C@H]1CCC/C=C/[C@@H]2C[C@H](OC(=O)OCc3ccc(N4CCCCC4)nc3)C[C@H]2[C@H](O)/C=C/C(=O)O1` [Compound 8], the half-inhibitory concentration (IC50) in data set [1] is 0.1 to 1 µM; in data set [2], 0.1 to 1 µM; in [3] it was 1 to 10 µM; in data set [4], 0.1 to 1 µM; in data set [5] it was 0.1 to 1 µM; in data set [6], 1 to 10 µM. The IC50 in data set [7] and in [8] was 0.1 to 1 µM throughout.

What is called solubility is the concentration that dissolves in the medium under given conditions. As for `C[C@H]1CCC/C=C/[C@@H]2C[C@H](OC(=O)OCCc3cccnc3)C[C@H]2[C@H](O)/C=C/C(=O)O1` [Compound 9, BFA-7-(pyridine-3-ylethyl)carbonate], the IC50 in data set [1] is 0.1 to 1 µM; in data set [2], 0.1 to 1 µM; in data set [3], less than 0.1 µM; in [4] it was 0.1 to 1 µM; in data set [5] it was less than 0.1 µM; in [6] it was 0.1 to 1 µM. Further, the half-inhibitory concentration (IC50) in data set [7] and in data set [8] was 0.1 to 1 µM throughout. Further, the solubility at 24 h in data set [9] (setting [10]) was determined as 2.7 ± 0.77 mg/mL; in [9] (setting [11]), 68.8 ± 2.53 mg/mL (≈ 160 mM); in [9] (setting [12]) it was 69 ± 1.81 mg/mL (≈ 161 mM).

With `C[C@H]1CCC/C=C/[C@@H]2C[C@H](OC(=O)OCCCc3cccnc3)C[C@H]2[C@H](O)/C=C/C(=O)O1` [Compound 10], the IC50 in data set [1], in data set [2], in [3], in [4], in [5] and in [6] was 0.1 to 1 µM each time. Also, the half-inhibitory concentration (IC50) in data set [7] is 0.1 to 1 µM; in data set [8], less than 0.1 µM.

As for `C[C@H]1CCC/C=C/[C@@H]2C[C@H](OC(=O)OCc3cncc4ccccc34)C[C@H]2[C@H](O)/C=C/C(=O)O1` [Compound 12], the IC50 is less than 0.1 µM in data set [1]; 0.1 to 1 µM in data set [2]; 0.1 to 1 µM in data set [3]; 0.1 to 1 µM in [4]; 0.1 to 1 µM in [5]; 0.1 to 1 µM in [6]. Moreover, the IC50 in [7] and in [8] was 0.1 to 1 µM each time.

As for `C[C@H]1CCC/C=C/[C@@H]2C[C@H](OC(=O)OCCc3ccccc3)C[C@H]2[C@H](O)/C=C/C(=O)O1` [Compound A, reference compound], the IC50 in data set [1] was 0.1 to 1 µM; in data set [2], 0.1 to 1 µM; in data set [3], 1 to 10 µM; in [4] it was 1 to 10 µM; in data set [5] it was 0.1 to 1 µM; in [6], 1 to 10 µM. For the same compound, the IC50 in [7] lay in the range of 1 to 10 µM; in data set [8] it was 0.1 to 1 µM. Further, the solubility at 24 h was 0.25 ± 0.13 mg/mL in data set [9] (setting [10]), 9.36 ± 1.26 mg/mL (≈ 21.8 mM) in data set [9] (setting [11]) and 9.93 ± 1.21 mg/mL (≈ 23.2 mM) in data set [9] (setting [12]).

Regarding `C[C@H]1CCC/C=C/[C@@H]2C[C@H](OC(=O)OCc3cccc(F)c3)C[C@H]2[C@H](O)/C=C/C(=O)O1` [Compound B, reference compound], the 50% inhibitory concentration (IC50) in data set [1] lay within 0.1 to 1 µM; in data set [2], 1 to 10 µM; in [3], 1 to 10 µM; in [4], 0.1 to 1 µM; in data set [5], 1 to 10 µM; in data set [6] it was 1 to 10 µM. Also, the IC50 in [7] and in [8] was 0.1 to 1 µM throughout. Moreover, the solubility at 24 h in data set [9] (setting [10]) was found to be 0.26 ± 0.16 mg/mL; in data set [9] (setting [11]), 9.55 ± 1.23 mg/mL (≈ 22.1 mM); in data set [9] (setting [12]), 9.76 ± 1.21 mg/mL (≈ 22.6 mM).

For the compound `COC(=O)O[C@@H]1C[C@H]2[C@H](O)/C=C/C(=O)O[C@@H](C)CCC/C=C/[C@@H]2C1` [Compound C, reference compound], the IC50 in [1] was in the range of 0.1 to 1 µM; in data set [2] it was 0.1 to 1 µM; in [3], 1 to 10 µM; in [4], 0.1 to 1 µM; in [5], 0.1 to 1 µM; in data set [6], 1 to 10 µM. In addition, the results for the half-inhibitory concentration (IC50) in data set [7] and in data set [8] were 0.1 to 1 µM and 1 to 10 µM, respectively. In addition, the solubility at 24 h turned out to be 0.25 ± 0.23 mg/mL in [9] (setting [10]), 9.26 ± 1.13 mg/mL (≈ 27.4 mM) in [9] (setting [11]) and 9.44 ± 1.51 mg/mL (≈ 27.9 mM) in data set [9] (setting [12]).
